Measurements taken from patent US9643967B2, “Pyrrolo[3,2-c]pyridine derivatives as TLR inhibitors” (TAKEDA PHARMACEUTICAL COMPANY LIMITED, priority 2013, dated 2017).
Like-named read-outs stand apart in the source and are kept apart here.

Biological target: T1, mTLR7 (Mus musculus, UniProt P58681)
T1 construct: Splenocytes isolated from male C57/BL6 mice; from tissue; host or cells: splenocytes from the spleen of male C57BL/6 mice
T1 sequence (P58681 27-1050): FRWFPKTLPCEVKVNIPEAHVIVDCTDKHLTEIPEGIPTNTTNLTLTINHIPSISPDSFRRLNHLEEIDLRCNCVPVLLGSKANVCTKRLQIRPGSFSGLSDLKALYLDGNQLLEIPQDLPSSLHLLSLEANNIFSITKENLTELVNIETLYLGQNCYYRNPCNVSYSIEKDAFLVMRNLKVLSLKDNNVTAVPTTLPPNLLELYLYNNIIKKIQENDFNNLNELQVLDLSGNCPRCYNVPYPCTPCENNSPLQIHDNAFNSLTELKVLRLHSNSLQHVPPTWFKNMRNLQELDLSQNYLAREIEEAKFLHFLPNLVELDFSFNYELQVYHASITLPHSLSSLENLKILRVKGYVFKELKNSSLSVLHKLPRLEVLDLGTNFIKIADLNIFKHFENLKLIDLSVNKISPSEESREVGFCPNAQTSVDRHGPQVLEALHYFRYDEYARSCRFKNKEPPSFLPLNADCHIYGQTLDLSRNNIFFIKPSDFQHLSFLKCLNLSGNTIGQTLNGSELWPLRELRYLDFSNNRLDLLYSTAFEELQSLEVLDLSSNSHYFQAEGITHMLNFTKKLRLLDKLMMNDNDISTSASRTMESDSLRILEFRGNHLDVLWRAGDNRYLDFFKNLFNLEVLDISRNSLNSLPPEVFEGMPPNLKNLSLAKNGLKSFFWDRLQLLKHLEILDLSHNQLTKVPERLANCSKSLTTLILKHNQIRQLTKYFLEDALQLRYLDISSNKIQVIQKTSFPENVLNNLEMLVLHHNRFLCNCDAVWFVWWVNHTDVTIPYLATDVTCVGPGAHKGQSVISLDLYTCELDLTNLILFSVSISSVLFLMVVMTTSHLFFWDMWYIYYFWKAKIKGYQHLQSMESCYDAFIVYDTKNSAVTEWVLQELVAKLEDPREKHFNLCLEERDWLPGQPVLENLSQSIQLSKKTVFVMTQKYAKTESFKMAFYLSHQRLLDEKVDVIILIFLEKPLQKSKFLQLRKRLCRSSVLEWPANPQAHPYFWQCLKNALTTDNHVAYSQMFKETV
Assay: mTLR7 antagonism (IL-6 and TNF-α release assay) in mouse splenocytes, R0006/DOTAP stimulated
Type: cell-based
Details: 1 μM, mouse splenocytes
Summary of the method: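 C57BL6 splenocytes (0.2 million/well) preincubated 30 min with compounds (30 μM to 1 nM, 0.3% DMSO), then stimulated with R0006/DOTAP liposome complex at 1 μg/ml final, overnight, 37 °C, 5% CO2. IL-6 and TNF-α in supernatant by ELISA; IC50 from inhibition curves.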

[1] = IL-6 release, read-out: mTLR7 inhibitory activity (% at 1 μM), IL-6
[2] = TNF-α release, read-out: mTLR7 inhibitory activity (% at 1 μM), TNF-α

| SMILES | inhibition at 1 µM [1] | inhibition at 1 µM [2] |
| --- | --- | --- |
| CN1CCN(c2ccc(-c3nccc4[nH]c(CCN5CCOCC5)cc34)cc2)CC1 [Example B2, 4-[2-[4-[4-(4-methylpiperazin-1-yl)phenyl]-1H-pyrrolo[3,2-c]pyridin-2-yl]ethyl]morpholine] | 100% | 100% |
| Cc1cc2c(cc(CN3CCOCC3)n2C)c(-c2ccc(N3CCN(C(C)C)CC3)cc2)n1 [Example A35, 4-[[4-[4-(4-isopropylpiperazin-1-yl]phenyl]-1,6-dimethyl-pyrrolo[3,2-c]pyridin-2-yl]methyl] morpholine] | 100% | 100% |
| Cc1cc2c(cc(CCN3CCOCC3)n2C)c(-c2ccc(N3CCN(C(C)C)CC3)cc2F)n1 [Example B19, 4-[2-[4-[2-fluoro-4-(4-isopropylpiperazin-1-yl)phenyl]-1,6-dimethyl-pyrrolo[3,2-c]pyridin-2-yl]ethyl]morpholine] | 100% | 100% |
| Cc1cc2c(cc(CCN3CCOCC3)n2C)c(-c2cccc(N3CCN(C(C)C)CC3)c2)n1 [Example B21, 4-[2-[4-[3-(4-isopropylpiperazin-1-yl)phenyl]-1,6-dimethyl-pyrrolo[3,2-c]pyridin-2-yl]ethyl]morpholine] | 100% | 100% |
| c1cc2[nH]c(CN3CCOCC3)cc2c(-c2ccc(OC3CCNCC3)cc2)n1 [Example A49, 4-[[4-[4-(4-piperidyloxy)phenyl]-1H-pyrrolo[3,2-c]pyridin-2-yl]methyl]morpholine] | 2% | 3% |
| CCN1CCN(c2ccc(-c3nc(C)cc4[nH]c(CN5CCOCC5)cc34)cc2)CC1 [Example A5, 4-[[4-[4-(4-ethylpiperazin-1-yl)phenyl]-6-methyl-1H-pyrrolo[3,2-c]pyridin-2-yl]methyl] morpholine] | 100% | 100% |
| Cc1cc2c(cc(CCN3CCOCC3)n2C)c(-c2ccc(N3CCN(C(C)C)CC3)cc2)n1 [Example B11, 4-[2-[4-[4-(4-isopropylpiperazin-1-yl)phenyl]-1,6-dimethyl-pyrrolo[3,2-c]pyridin-2-yl]ethyl]morpholine] | 100% | 100% |
| Cc1cc2[nH]c(Cn3cccn3)cc2c(-c2ccc(N3CCN(C(C)C)CC3)cc2)n1 [Example A28, 4-[4-(4-isopropylpiperazin-1-yl)phenyl]-6-methyl-2-(pyrazol-1-ylmethyl)-1H-pyrrolo[3,2-c]pyridine] | 88% | 100% |
| CCN1CCN(c2ccc(-c3nc(C)c(C)c4[nH]c(CN5CCOCC5)cc34)cc2)CC1 [Example A38, 4-[[4-[4-(4-ethylpiperazin-1-yl)phenyl]-6,7-dimethyl-1H-pyrrolo[3,2-c]pyridin-2-yl]methyl] morpholine] | 100% | 100% |
| CN1CCC(n2cc(-c3nccc4[nH]c(CN5CCOCC5)cc34)cn2)CC1 [Example A63, 4-[[4-[1-(1-methyl-4-piperidyl)pyrazol-4-yl]-1H-pyrrolo[3,2-c]pyridin-2-yl]methyl]morpholine] | – | 0% |
| Cc1cc2[nH]c(CCCN3CCOCC3)cc2c(-c2ccc(N3CCN(C(C)C)CC3)cc2)n1 [Example C3, 4-[3-[4-[4-(4-isopropylpiperazin-1-yl)phenyl]-6-methyl-1H-pyrrolo[3,2-c]pyridin-2-yl]propyl]morpholine] | 100% | 100% |
| Cc1nc(-c2ccc(N3CCN(C)CC3)cc2)c2cc(CCN3CCOCC3)[nH]c2c1C [Example B7, 4-[2-[6,7-dimethyl-4-[4-(4-methylpiperazin-1-yl)phenyl]-1H-pyrrolo[3,2-c]pyridin-2-yl]ethyl]morpholine] | – | 100% |
| Cc1nc(-c2ccc(N3CCN(C(C)C)CC3)cc2)c2cc(CN3CCCC3)[nH]c2c1C [Example A40, 4-[4-(4-isopropylpiperazin-1-yl)phenyl]-6,7-dimethyl 2-(pyrrolidin-1-ylmethyl)-1H-pyrrolo[3,2-c)pyridine] | – | 100% |
| Cc1cc2c(cc(CCN3CCOCC3)n2C)c(-c2ccc(N3CCN(C(C)C)CC3)cc2C)n1 [Example B15, 4-[2-[4-[4-(4-isopropylpiperazin-1-yl)-2-methyl-phenyl]-1,6-dimethyl-pyrrolo[3,2-c]pyridin-2-yl]ethyl]morpholine] | 88% | 83% |
| CC(C)N1CCN(c2ccc(-c3nccc4[nH]c(CN5CCC[C@@H]5C(=O)O)cc34)cc2)CC1 [Example A74, (2R)-1-[[4-[4-(4-isopropylpiperazin-1-yl)phenyl]-1H-pyrrolo[3,2-c]pyridin-2-yl]methyl]pyrrolidine-2-carboxylic acid] | – | 32% |
| Cc1nc(-c2ccc(N3CCN(C(C)C)CC3)cc2)c2cc(CN3CCCCC3)[nH]c2c1C [Example A39, 4-[4-(4-isopropylpiperazin-1-yl)phenyl]-6,7-dimethyl-2-(1-piperidylmethyl)-1H-pyrrolo[3,2-c]pyridine] | – | 100% |
| Cc1cc2c(cc(CCN3CCOCC3)n2C)c(-c2ccc(N3CCN(C(C)C)CC3)c(C)c2)n1 [Example B16, 4-[2-[4-[4-(4-isopropylpiperazin-1-yl)-3-methyl-phenyl]-1,6-dimethyl-pyrrolo[3,2-c]pyridin-2-yl]ethyl]morpholine] | 100% | 100% |
| Cc1cc2c(cc(CCN3CCOCC3)n2C)c(-c2ccc(N3CCN(C(C)C)[C@@H](C)C3)cc2)n1 [Example B23, 4-[2-[4-[4-[(3S)-4-isopropyl-3-methyl-piperazin-1-yl]phenyl]-1,6-dimethyl-pyrrolo[3,2-c]pyridin-2-yl]ethyl]morpholine] | 100% | 100% |
| CC(C)N1CCN(Cc2ccc(-c3nccc4[nH]c(CN5CCOCC5)cc34)cc2)CC1 [Example A55, 4-[[4-[4-[(4-isopropylpiperazin-1-yl)methyl]phenyl]-1H-pyrrolo[3,2-c]pyridin-2-yl]methyl]morpholine] | 100% | 33% |
| CC(C)N1CCN(c2ccc(-c3nccc4[nH]c(CN5CCC(F)CC5)cc34)cc2)CC1 [Example A24, 2-[(4-fluoro-1-piperidyl)methyl]-4-[4-(4-isopropylpiperazin-yl)phenyl]-1H-pyrrolo[3,2-c] pyridine] | – | 100% |
